Tests used:
Format in all cases: cell-based
LS411N cells = assay: DHX9 cellular proliferation assay (CellTiter-Glo), LS411N (CRC-MSI); details: Homo sapiens, LS-411N, LS411N; performed at Pharmaron; read-out: LS411N (CRC-MSI-H) Antiproliferative IC50
NCI-H747 cells = assay: DHX9 cellular proliferation assay (CellTiter-Glo), NCI-H747 (CRC-MSS); details: Homo sapiens, NCI-H747, NCI-H747; performed at Pharmaron; read-out: H747 (CRC-MSS) Antiproliferative IC50
[1] = test system: circBRIP1 in HCT116 cells; assay: DHX9 circBRIP1 cellular target engagement TaqMan Multiplex assay (qPCR); details: Homo sapiens, HCT-116, circBRIP1, HCT116 cells; * Taqman assay was used; read-out: DHX9 Cellular Target Engagement EC50

Structure (SMILES)	IC50 (LS411N cells) [nM]	IC50 (NCI-H747 cells) [nM]	EC50 [1] [nM]
CCS(=O)(=O)Nc1cc(Cl)cc(NC(=O)c2cc(-c3ncc(OC(C)C)cn3)c(C)s2)c1 [Example 565]	58.2	3010	56.5
CCS(=O)(=O)Nc1cc(Cl)cc(NC(=O)c2cc(-c3ccc(F)cn3)n(C)c2)c1 [Example 579]	329	> 10000	103
Cc1sc(C(=O)Nc2cc(Cl)cc(NS(C)(=O)=O)c2)cc1-c1ncc(C#N)cn1 [Example 585]	208	> 10000	65.1
Cc1sc(C(=O)Nc2cc(Cl)cc(NS(C)(=O)=O)c2)cc1-c1ccc(N2CCN(C(=O)C3CC3)CC2)cn1 [Example 590, N-(3-chloro-5-methanesulfonamidophenyl)-4-[5-(4-cyclopropanecarbonylpiperazin-1-yl)pyridin-2-yl]-5-methylthiophene-2-carboxamide]	533	> 10000	33.7
COC(=O)N1CCN(c2ccc(-c3cc(C(=O)Nc4cc(Cl)cc(NS(C)(=O)=O)c4)cn3C)nc2)CC1 [Example 596]	172	9880	38
Cn1cc(C(=O)Nc2cc(Cl)cc(NS(C)(=O)=O)c2)cc1-c1ncc(N2CC(F)(F)C2)cn1 [Example 597]	164	> 10000	64.8
Cn1cc(C(=O)Nc2cc(Cl)cc(NS(C)(=O)=O)c2)cc1-c1ncc(N2CC(F)C2)cn1 [Example 598]	174	> 10000	50.6
Cn1cc(C(=O)Nc2cc(Cl)cc(NS(C)(=O)=O)c2)cc1-c1ncc(N2CC(F)(F)C2)cc1F [Example 599]	149	4330	37.8
COC(=O)N1CCN(c2cnc(-c3cc(C(=O)Nc4cc(Cl)cc(NS(C)(=O)=O)c4)sc3C)c(C)c2)CC1 [Example 601]	64.5	> 10000	106
CN1C(=O)N(c2ccc(-c3cc(C(=O)Nc4cc(Cl)cc(NS(C)(=O)=O)c4)cn3C)nc2)C(=O)C1(C)C [Example 603]	1090	8370	45.8
Cc1sc(C(=O)Nc2cc(Cl)cc(NS(C)(=O)=O)c2)cc1-c1ncc(OC2CN(C)C2)cn1 [Example 609, N-(3-chloro-5-methanesulfonamidophenyl)-5-methyl-4-{5-[(1-methylazetidin-3-yl)oxy]pyrimidin-2-yl}thiophene-2-carboxamide]	658	> 10000	4.7
CN1CC(Oc2cnc(-c3cc(C(=O)Nc4cc(Cl)cc(NS(C)(=O)=O)c4)cn3C)c(F)c2)C1 [Example 611]	133	8830	20.5
CN1CC(Oc2cnc(-c3cc(C(=O)Nc4cc(Cl)cc(NS(C)(=O)=O)c4)cn3CC(F)(F)F)nc2)C1 [Example 613]	173	> 10000	116
Cn1cc(C(=O)Nc2cc(Cl)cc(NS(C)(=O)=O)c2)cc1-c1ncc(OC2CN(CC(F)F)C2)cc1F [Example 614]	53.1	3190	26.9
Cn1cc(C(=O)Nc2cc(Cl)cc(NS(C)(=O)=O)c2)cc1-c1ncc(OC2CN(CC(F)(F)F)C2)cc1F [Example 615]	71.3	7560	133
CNc1cnc(-c2cc(C(=O)Nc3cc(Cl)cc(NS(C)(=O)=O)c3)sc2C)nc1 [Example 616, N-(3-chloro-5-methanesulfonamidophenyl)-5-methyl-4-[5-(methylamino)pyrimidin-2-yl]thiophene-2-carboxamide]	348	> 10000	17.3
Cc1sc(C(=O)Nc2cc(Cl)cc(NS(C)(=O)=O)c2)cc1-c1ncc(C2CCN(CC(F)(F)F)CC2)cc1F [Example 618]	132	1850	45.4
Cn1cc(C(=O)Nc2cc(Cl)cc(NS(C)(=O)=O)c2)cc1-c1ccc(C2CCN(CC(F)(F)F)CC2)cn1 [Example 619]	178	3620	84.5
CCS(=O)(=O)Nc1cc(Cl)cc(NC(=O)c2cc(-c3ncc(F)cc3OCc3nccs3)c(C)s2)c1 [Example 622]	48.9	> 10000	55.9
CCS(=O)(=O)Nc1cc(Cl)cc(NC(=O)c2cc(-c3ncc(F)cc3OCc3cncnc3)c(C)s2)c1 [Example 623]	72.3	> 10000	11.2
Cc1sc(C(=O)Nc2cc(Cl)cc(NS(=O)(=O)CCO)c2)cc1-c1ncccc1OCc1cncc(F)c1 [Example 626]	137	> 10000	24.1
Cn1cc(C(=O)Nc2cc(Cl)cc(NS(C)(=O)=O)c2)cc1-c1ncncc1OCc1cc(F)cc(F)c1 [Example 627]	29.4	> 10000	37.6
Cc1sc(C(=O)Nc2cc(Cl)cc(NS(C)(=O)=O)c2)cc1-c1ncc(OC2CN(C)C2)cc1F [Example 635]	79.2	> 10000	19.1

Structure (SMILES)	IC50 (LS411N cells) [nM]	IC50 (NCI-H747 cells) [nM]	EC50 [1] [nM]
Cc1sc(C(=O)Nc2cc(Cl)cc(NS(C)(=O)=O)c2)cc1-c1ncc(OC2CNC2)cn1 [Example 636, 4-[5-(azetidin-3-yloxy)pyrimidin-2-yl]-N-(3-chloro-5-methanesulfonamidophenyl)-5-methylthiophene-2-carboxamide]	1210	> 10000	300
CN(C)CCOc1cnc(-c2cc(C(=O)Nc3cc(Cl)cc(NS(C)(=O)=O)c3)cn2C)c(F)c1 [Example 646]	32.5	> 10000	45.3
Cc1cc(C(=O)Nc2cc(Cl)cc(NS(C)(=O)=O)c2)cn1-c1ncc(OC(C)(C)C)cn1 [Example 664]	163	> 10000	71.9
Cc1sc(C(=O)Nc2cc(Cl)cc(NS(C)(=O)=O)c2)cc1-c1ncc(OC(C)(C)CO)cn1 [Example 678]	391	3100	18.7
Cc1sc(C(=O)Nc2cc(Cl)cc(NS(C)(=O)=O)c2)cc1-c1ncc(C2(F)COC2)cn1 [Example 680]	208	8760	31
CC(C)(C)Oc1cnc(-c2cc(C(=O)Nc3cc(Cl)cc(NS(C)(=O)=O)c3)sc2CO)nc1 [Example 686]	132	4630	47.7
Cn1cc(C(=O)Nc2cc(Cl)cc(NS(C)(=O)=O)c2)cc1-c1ccc(N2CC(C)(F)C2)cn1 [Example 688]	122	6360	47.5
Cc1cc(C(=O)Nc2cc(Cl)cc(NS(C)(=O)=O)c2)cn1-c1ncc(N2CC(C(F)(F)F)C2)cn1 [Example 694]	80.4	7770	90
Cn1cc(C(=O)Nc2cc(Cl)cc(NS(C)(=O)=O)c2)cc1-c1ccc(N2CC(CS(C)(=O)=O)C2)cn1 [Example 695]	2970	> 10000	143
Cc1sc(C(=O)Nc2cc(Cl)cc(NS(C)(=O)=O)c2)cc1-c1ncc(F)cc1C#CC(C)(C)O [Example 696]	45.1	7700	36.7
CC(=O)N1CCC(c2cnc(-c3cc(C(=O)Nc4cc(Cl)cc(NS(C)(=O)=O)c4)sc3C)nc2)CC1 [Example 699]	517	> 10000	21.9
Cn1cc(C(=O)Nc2cc(Cl)cc(NS(C)(=O)=O)c2)cc1-c1ncc(N2CC3(C2)CC(F)(F)C3)cc1F [Example 702]	224	8120	31.6
Cn1cc(C(=O)Nc2cc(Cl)cc(NS(C)(=O)=O)c2)cc1-c1ccc(C2CCOCC2)cn1 [Example 704]	56.9	7140	25.4
Cc1sc(C(=O)Nc2cc(Cl)cc(NS(C)(=O)=O)c2)cc1-c1ncc(OCC(F)(F)F)cn1 [Example 706]	243	3880	51.7
Cc1sc(C(=O)Nc2cc(Cl)cc(NS(C)(=O)=O)c2)cc1-c1ncc(N2CC(F)(F)C2)cc1OCC(F)(F)F [Example 707]	68.5	5360	25.4
Cc1cc(C(=O)Nc2cc(Cl)cc(NS(C)(=O)=O)c2)cn1-c1ncc(N2CC(F)(F)C2)cc1OCC(F)(F)F [Example 708]	140	6460	92.6
Cc1sc(C(=O)Nc2cc(Cl)cc(NS(C)(=O)=O)c2)cc1-c1ccc(C2CN(CC(F)(F)F)C2)cn1 [Example 710]	48.1	5400	10.7
Cc1sc(C(=O)Nc2cc(Cl)cc(NS(C)(=O)=O)c2)cc1-c1ncc(N2CC(F)(F)C2)cc1C#N [Example 715]	69.9	9760	14.4
Cc1sc(C(=O)Nc2cc(Cl)cc(NS(C)(=O)=O)c2)cc1-c1ncc(N(C)S(C)(=O)=O)cn1 [Example 720]	452	7900	54.9
Cc1sc(C(=O)Nc2cc(Cl)cc(NS(C)(=O)=O)c2)cc1-c1ncc(F)cc1OCc1cnco1 [Example 732]	34.1	4570	26.1
Cn1cc(C(=O)Nc2cc(Cl)cc(NS(C)(=O)=O)c2)cc1-c1ncc(N2CC(F)(F)C2)cc1OCc1cnco1 [Example 733]	206	> 10000	88.3
Cc1ncc(OCc2cc(F)cc(F)c2)c(-c2cc(C(=O)Nc3cc(Cl)cc(NS(C)(=O)=O)c3)cn2C)n1 [Example 734]	10.6	6170	3
CS(=O)(=O)Nc1cc(Cl)cc(NC(=O)c2cc(-c3ncc(F)cc3OCc3cncnc3)n(CC(F)(F)F)c2)c1 [Example 735]	306	> 10000	77.2

— patent US12162867B2, “Inhibitors of RNA helicase DHX9 and uses thereof” (ACCENT THERAPEUTICS, INC., priority 2022, dated 2024)
